# In patent US12583818B2 (DAEGU-GYEONGBUK MEDICAL INNOVATION FOUNDATION, priority 2020, dated 2026):
# pIC50: −log10 of the molar value.
# Molecular target: T1, Pin1 (Homo sapiens, UniProt Q13526)
# T1 construct: purchased Anaspec
# Assay: Evaluation of Pin1 enzyme inhibitory activity (Sensolyte Green Pin1 assay kit)
# Assay type: biochemical
# Conditions: Table 2; read-out: concentration at which Pin1 inhibitory activity was exhibited
# Experimental: In order to evaluate the Pin1 enzyme inhibitory activity of the compound represented by formula 1 according to the present invention, the following experiment was performed, and the results are shown in Table 2 below.
# The enzyme activity of Pin1 protein was measured using a sensolyte Green Pin1 assay kit of Anaspec. The substrate was diluted in a buffer at a ratio of 1:100 to prepare a concentration of 1 μM, and the protein was diluted in a buffer at a ratio of 1:20 to prepare a concentration of 50 μg/ml. In addition, a developing solution was prepared by diluting thereof in a buffer at a ratio of 1:100.
# The compound prepared in each example was diluted with DMSO and prepared at a concentration of 100 μM, 10 μM, 1 μM or 0.1 μM using a buffer. After sequentially adding 10 μl of the compound prepared in each Example diluted to four concentrations according to the above method, 10 μl of Pin1 protein, and 30 μl of the developing solution to each well of a black 96-well plate, […]. Finally, 50 μl of the substrate was added to each well of the plate, and the enzyme reaction was carried out after shaking the plate for 10 seconds.
# Then, the plate was incubated for 2 hours at room temperature in an environment without light, and the fluorescence values at 490 nm/520 nm wavelength were measured using a device of Synergy Neo […]. The results are shown in Table 2 below by dividing the grades of A to D for each concentration (μM) at which the Pin1 enzyme activity is inhibited.
# T1 sequence (Q13526 whole entry): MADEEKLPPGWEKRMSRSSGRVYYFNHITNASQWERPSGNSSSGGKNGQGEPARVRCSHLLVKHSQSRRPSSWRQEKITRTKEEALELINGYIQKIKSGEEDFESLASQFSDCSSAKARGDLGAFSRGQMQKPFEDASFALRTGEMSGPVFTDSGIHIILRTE
row,SMILES,pIC50
1,"O=S(=O)(NCCCc1c[nH]c2ccc(Cl)cc12)c1ccc(OCCCN2CCCCC2)cc1 [Example 87, N-(3-(5-chloro-1H-indol-3-yl)propyl)-4-(3-(piperidin-1-yl)propoxy)benzenesulfonamide]",> 6.00
2,"O=S(=O)(NCCCc1c[nH]c2ccc(Cl)cc12)c1ccc(OCCCN2CCCCCC2)cc1 [Example 101, 4-(3-(azepan-1-yl)propoxy)-N-(3-(5-chloro-1H-indol-3-yl)propyl)benzenesulfonamide]",> 6.00
3,"O=S(=O)(NCCCc1c[nH]c2ccc(Cl)cc12)c1ccc(OCCCN2CCCNCC2)cc1 [Example 102, 4-(3-(1,4-diazepan-1-yl)propoxy)-N-(3-(5-chloro-1H-indol-3-yl)propyl)benzenesulfonamide]",> 6.00
4,"CC1CN(CCCOc2ccc(S(=O)(=O)NCCCc3c[nH]c4ccc(Cl)cc34)cc2)CCN1 (centres unmarked) [Example 107, N-(3-(5-chloro-1H-indole-3-yl)propyl)-4-(3-(3-methylpiperazine-1-yl)propoxy)benzenesulfonamide]",> 6.00
5,"CN1CCN(CC2(COc3ccc(S(=O)(=O)NCCCc4c[nH]c5ccc(Cl)cc45)cc3)CC2)CC1 [Example 116, N-(3-(5-chloro-1H-indole-3-yl)propyl)-4-((1-((4-methylpiperazine-1-yl)methyl)cyclopropyl)methoxy)benzenesulfonamide]",> 6.00

# Same assay, conditions: concentration at which the Pin1 enzyme activity is inhibited; 2 hours at room temperature, fluorescence 490 nm/520 nm; read-out: Pin 1 inhibition
row,SMILES,pIC50
1,"CC(C)N1CCN(CCCOc2ccc(S(=O)(=O)NCCc3c[nH]c4ccccc34)cc2)CC1 [Example 51, N-(2-(1H-indol-3-yl)ethyl)-4-(3-(4-isopropylpiperazin-1-yl)propoxy)benzenesulfonamide]",< 4.00
2,"CN1CCN(CCOc2ccc(S(=O)(=O)NCCCc3c[nH]c4ccccc34)cc2)CC1 [Example 52, N-(3-(1H-indol-3-yl)propyl)-4-(2-(4-methylpiperazin-1-yl)ethoxy)benzenesulfonamide]",4.00 to 5.00
3,"CC(C)N1CCN(CCOc2ccc(S(=O)(=O)NCCCc3c[nH]c4ccccc34)cc2)CC1 [Example 53, N-(3-(1H-indol-3-yl)propyl)-4-(2-(4-isopropylpiperazin-1-yl)ethoxy)benzenesulfonamide]",4.00 to 5.00
4,"Cc1[nH]c2ccccc2c1CCNS(=O)(=O)c1ccc(OCCCN2CCN(C)CC2)cc1 [Example 54, N-(2-(2-methyl-1H-indol-3-yl)ethyl)-4-(3-(4-methylpiperazin-1-yl)propoxy)benzenesulfonamide]",4.00 to 5.00
5,"CN1CCN(CCCOc2ccc(S(=O)(=O)NCCCc3c[nH]c4ccccc34)cc2F)CC1 [Example 62, N-(3-(1H-indol-3-yl)propyl)-3-fluoro-4-(3-(4-methylpiperazin-1-yl)propoxy)benzenesulfonamide]",5.00 to 6.00
6,"CCN1CCN(CCCOc2ccc(S(=O)(=O)NCCCc3c[nH]c4ccc(F)cc34)cc2)CC1 [Example 63, 4-(3-(4-ethylpiperazin-1-yl)propoxy)-N-(3-(5-fluoro-1H-indol-3-yl)propyl)benzenesulfonamide]",5.00 to 6.00
7,"COc1ccc2[nH]cc(C3CCN(S(=O)(=O)c4ccc(OCCCN5CCN(C)CC5)cc4)CC3)c2c1 [Example 64, 5-methoxy-3-(1-((4-(3-(4-methylpiperazin-1-yl)propoxy)phenyl)sulfonyl)piperidin-4-yl)-1H-indole]",4.00 to 5.00
8,"Cc1ccc2[nH]cc(C3CCN(S(=O)(=O)c4ccc(OCCCN5CCN(C)CC5)cc4)CC3)c2c1 [Example 65, 5-methyl-3-(1-((4-(3-(4-methylpiperazin-1-yl)propoxy)phenyl)sulfonyl)piperidin-4-yl)-1H-indole]",4.00 to 5.00
9,"Cc1ccc2[nH]cc(CCCNS(=O)(=O)c3ccc(OCCCN4CCN(C)CC4)cc3)c2c1 [Example 67, N-(3-(5-methyl-1H-indol-3-yl)propyl)-4-(3-(4-methylpiperazin-1-yl)propoxy)benzenesulfonamide]",5.00 to 6.00
10,"COc1ccc2[nH]cc(CCCNS(=O)(=O)c3ccc(OCCCN4CCN(C)CC4)cc3)c2c1 [Example 68, N-(3-(5-methoxy-1H-indol-3-yl)propyl)-4-(3-(4-methylpiperazin-1-yl)propoxy)benzenesulfonamide]",5.00 to 6.00
11,"O=S(=O)(NCCCc1c[nH]c2ccccc12)c1ccc(OCCCN2CCC(O)CC2)cc1 [Example 69, N-(3-(1H-indol-3-yl)propyl)-4-(3-(4-hydroxypiperidin-1-yl)propoxy)benzenesulfonamide]",5.00 to 6.00
12,"CN1CCN(CCCOc2ccc(S(=O)(=O)N3CCC(c4c[nH]c5ccc(F)cc45)CC3)cc2)CC1 [Example 71, 5-fluoro-3-(1-((4-(3-(4-methylpiperazin-1-yl)propoxy)phenyl)sulfonyl)piperidin-4-yl)-1H-indole]",4.00 to 5.00
13,"C[C@@H]1CN(CCCOc2ccc(S(=O)(=O)NCCCc3c[nH]c4ccc(F)cc34)cc2)C[C@H](C)N1 [Example 72, 4-(3-((3S,5R)-3,5-dimethylpiperazine-1-yl)propoxy)-N-(3-(5-fluoro-1H-indole-3-yl)propyl)benzenesulfonamide]",4.00 to 5.00
14,"CC(C)C(=O)N1CCN(CCCOc2ccc(S(=O)(=O)NCCCc3c[nH]c4ccc(F)cc34)cc2)CC1 [Example 73, N-(3-(5-fluoro-1H-indol-3-yl)propyl)-4-(3-(4-isobutyrylpiperazin-1-yl)propoxy)benzenesulfonamide]",4.00 to 5.00
15,"O=S(=O)(NCCCc1c[nH]c2ccc(F)cc12)c1ccc(OCCCN2CCN(CC(F)(F)F)CC2)cc1 [Example 74, N-(3-(5-fluoro-1H-indol-3-yl)propyl)-4-(3-(4-(2,2,2-trifluoroethyl)piperazin-1-yl)propoxy)benzenesulfonamide]",5.00 to 6.00
16,"O=S(=O)(NCCCc1c[nH]c2ccc(Cl)cc12)c1ccc(OCCCN2CCN(CC(F)(F)F)CC2)cc1 [Example 76, N-(3-(5-chloro-1H-indol-3-yl)propyl)-4-(3-(4-(2,2,2-trifluoroethyl)piperazin-1-yl)propoxy)benzenesulfonamide]",5.00 to 6.00
17,"O=S(=O)(NCCCc1c[nH]c2ccc(F)cc12)c1ccc(OCCCN2CCCCC2)cc1 [Example 84, N-(3-(5-fluoro-1H-indol-3-yl)propyl)-4-(3-(piperidin-1-yl)propoxy)benzenesulfonamide]",5.00 to 6.00

row,SMILES,pIC50
1,"CN1CCN(CCCOc2ccc(S(=O)(=O)NC3CCCC(c4c[nH]c5ccccc45)C3)cc2)CC1 (centres unmarked) [Example 85, N-(3-(1H-indole-3-yl)cyclohexyl)-4-(3-(4-methylpiperazine-1-yl)propoxy)benzenesulfonamide]",4.00 to 5.00
2,"O=S(=O)(NCCCc1c[nH]c2ccc(Cl)cc12)c1ccc(OCCCN2CCCCC2)cc1 [Example 87, N-(3-(5-chloro-1H-indol-3-yl)propyl)-4-(3-(piperidin-1-yl)propoxy)benzenesulfonamide]",> 6.00
3,"CN1CCN(CCCOc2ccc(S(=O)(=O)Nc3cccc(-c4c[nH]c5ccccc45)c3)cc2)CC1 [Example 89, N-(3-(1H-indole-3-yl)phenyl)-4-(3-(4-methylpiperazine-1-yl)propoxy)benzenesulfonamide]",4.00 to 5.00
4,"O=S(=O)(NCCCc1c[nH]c2ccc(Cl)cc12)c1cccc(OCCCC2CCNCC2)c1 [Example 94, N-(3-(5-chloro-1H-indol-3-yl)propyl)-3-(3-(piperidin-4-yl)propoxy)benzenesulfonamide]",5.00 to 6.00
5,"O=S(=O)(NCCCc1c[nH]c2ccc(Cl)cc12)c1cccc(OCCCN2CCNCC2)c1 [Example 96, N-(3-(5-chloro-1H-indol-3-yl)propyl)-3-(3-(piperazin-1-yl)propoxy)benzenesulfonamide]",5.00 to 6.00
6,"O=S(=O)(NCCCc1c[nH]c2ccc(F)cc12)c1ccc(OCCCC2CCNCC2)cc1 [Example 97, N-(3-(5-fluoro-1H-indol-3-yl)propyl)-4-(3-(piperidin-4-yl)propoxy)benzenesulfonamide]",5.00 to 6.00
7,"O=S(=O)(NCCCc1c[nH]c2ccc(Cl)cc12)c1ccc(OCCCN2CCCCCC2)cc1 [Example 101, 4-(3-(azepan-1-yl)propoxy)-N-(3-(5-chloro-1H-indol-3-yl)propyl)benzenesulfonamide]",> 6.00
8,"O=S(=O)(NCCCc1c[nH]c2ccc(Cl)cc12)c1ccc(OCCCN2CCCNCC2)cc1 [Example 102, 4-(3-(1,4-diazepan-1-yl)propoxy)-N-(3-(5-chloro-1H-indol-3-yl)propyl)benzenesulfonamide]",> 6.00
9,"CC1CN(CCCOc2ccc(S(=O)(=O)NCCCc3c[nH]c4ccc(Cl)cc34)cc2)CCN1 (centres unmarked) [Example 107, N-(3-(5-chloro-1H-indole-3-yl)propyl)-4-(3-(3-methylpiperazine-1-yl)propoxy)benzenesulfonamide]",> 6.00
10,"CN1CCN(CC2(COc3ccc(S(=O)(=O)NCCCc4c[nH]c5ccc(Cl)cc45)cc3)CC2)CC1 [Example 116, N-(3-(5-chloro-1H-indole-3-yl)propyl)-4-((1-((4-methylpiperazine-1-yl)methyl)cyclopropyl)methoxy)benzenesulfonamide]",> 6.00
11,"O=S(=O)(NCCCc1c[nH]c2ccc(Cl)cc12)c1ccc(Oc2cccc(Br)c2)cc1 [Example 119, 4-(3-bromophenoxy)-N-(3-(5-chloro-1H-indol-3-yl)propyl)benzenesulfonamide]",5.00 to 6.00
12,"O=S(=O)(NCCCc1c[nH]c2ccc(Cl)cc12)c1ccc(Oc2cccc(N3CCCCC3)c2)cc1 [Example 120, N-(3-(5-chloro-1H-indol-3-yl)propyl)-4-(3-(piperidin-1-yl)phenoxy)benzenesulfonamide]",5.00 to 6.00
13,"CN1CCCN(c2cccc(Oc3ccc(S(=O)(=O)NCCCc4c[nH]c5ccc(Cl)cc45)cc3)c2)CC1 [Example 122, N-(3-(5-chloro-1H-indol-3-yl)propyl)-4-(3-(4-methyl-1,4-diazepan-1-yl)phenoxy)benzenesulfonamide]",5.00 to 6.00
14,"O=S(=O)(NCCCc1c[nH]c2ccc(Cl)cc12)c1ccc(Nc2cccc(N3CCOCC3)c2)cc1 [Example 126, N-(3-(5-chloro-1H-indol-3-yl)propyl)-4-((3-morpholinophenyl)amino)benzenesulfonamide]",5.00 to 6.00
15,"O=S(=O)(NCCCc1c[nH]c2ccc(Cl)cc12)c1ccc(Oc2cccc(N3CCOCC3)c2)cc1 [Example 128, N-(3-(5-chloro-1H-indol-3-yl)propyl)-4-(3-morpholinophenoxy)benzenesulfonamide]",5.00 to 6.00
16,"O=S(=O)(NCCCc1c[nH]c2ccc(Cl)cc12)c1ccc(Oc2cccc(N3CCCNCC3)c2)cc1 [Example 129, 4-(3-(1,4-diazepan-1-yl)phenoxy)-N-(3-(5-chloro-1H-indol-3-yl)propyl)benzenesulfonamide]",5.00 to 6.00
